In patent US20230278972A1, “SUBSTITUTED HALOALKYL SULFONANILIDE HERBICIDES” (FMC Corporation, priority 2020, published 2023):

How the values were obtained:
Type in all cases: in vivo
[1] = tested on: blackgrass (Alopecurus myosuroides); assay: Test A1 preemergence, blackgrass
Outline: (§1)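 Plants grown in pots of loam/sand mix; preemergence = soil-directed spray on seeded pots, postemergence = spray at 1–2 leaves, height 2–10 cm; test chemicals formulated in non-phytotoxic solvent with surfactant.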

corn (Zea mays) [2] = assay: Test A1 preemergence, corn
Outline: as §1

[3] = tested on: Foxtail, Giant (giant foxtail, Setaria faberi); assay: Test A1 preemergence, Foxtail, Giant
Outline: as §1

[4] = tested on: goosegrass (Eleusine indica); assay: Test A1 preemergence, goosegrass
Outline: as §1

kochia (Bassia scoparia) [5] = assay: Test A1 preemergence, kochia
Outline: as §1

[6] = tested on: Oat, Wild (wild oat, Avena fatua); assay: Test A1 preemergence, Oat, Wild
Outline: as §1

[7] = tested on: Pigweed, Palmer (palmer amaranth, palmer pigweed, Amaranthus palmeri); assay: Test A1 preemergence, Pigweed, Palmer
Outline: as §1

[8] = tested on: ragweed (common ragweed, Ambrosia artemisiifolia); assay: Test A1 preemergence, ragweed
Outline: as §1

[9] = tested on: Ryegrass, Italian (Italian ryegrass, Lolium multiflorum); assay: Test A1 preemergence, Ryegrass, Italian
Outline: as §1

soybean (Glycine max) [10] = assay: Test A1 preemergence, soybean
Outline: as §1

[11] = tested on: wheat (Triticum aestivum); assay: Test A1 preemergence, wheat
Outline: as §1

[12] = tested on: blackgrass (Alopecurus myosuroides); assay: Test A1 postemergence, blackgrass; conditions: 0 to 100 scale (0 no effect, 100 complete control); for Blackgrass plant response rating: 31 g ai/ha, postemergence; for Plant response rating, Blackgrass: Postemergence, 125 g ai/ha, 10 days
Outline: (§2)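 Plants were grown in a loam soil/sand blend, with test chemicals formulated in a non-phytotoxic solvent mixture containing surfactant. Preemergence treatment (corn) was a directed soil spray at planting. Postemergence treatment was applied to plants 2 to 10 cm tall at the one- to two-leaf stage.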

corn (Zea mays) [13] = assay: Test A1 postemergence, corn; conditions: 0 to 100 scale (0 no effect, 100 complete control); for Corn plant response rating: 31 g ai/ha, postemergence; for Plant response rating, Corn: Postemergence, 125 g ai/ha, 10 days
Outline: as §1

[14] = tested on: Foxtail, Giant (giant foxtail, Setaria faberi); assay: Test A1 postemergence, Foxtail, Giant; conditions: 0 to 100 scale (0 no effect, 100 complete control); for Foxtail, Giant plant response rating: 31 g ai/ha, postemergence; for Plant response rating, Foxtail, Giant: Postemergence, 125 g ai/ha, 10 days
Outline: as §2

[15] = tested on: goosegrass (Eleusine indica); assay: Test A1 postemergence, goosegrass; conditions: 0 to 100 scale (0 no effect, 100 complete control); for Goosegrass plant response rating: 31 g ai/ha, postemergence; for Plant response rating, Goosegrass: Postemergence, 125 g ai/ha, 10 days
Outline: as §2

kochia (Bassia scoparia) [16] = assay: Test A1 postemergence, kochia; conditions: 0 to 100 scale (0 no effect, 100 complete control); for Kochia plant response rating: 31 g ai/ha, postemergence; for Plant response rating, Kochia: Postemergence, 125 g ai/ha, 10 days
Outline: as §2

[17] = tested on: Oat, Wild (wild oat, Avena fatua); assay: Test A1 postemergence, Oat, Wild; conditions: 0 to 100 scale (0 no effect, 100 complete control); for Oat, Wild plant response rating: 31 g ai/ha, postemergence; for Plant response rating, Oat, Wild: Postemergence, 125 g ai/ha, 10 days
Outline: as §1

[18] = tested on: Pigweed, Palmer (palmer amaranth, palmer pigweed, Amaranthus palmeri); assay: Test A1 postemergence, Pigweed, Palmer; conditions: 0 to 100 scale (0 no effect, 100 complete control); for Pigweed, Palmer plant response rating: 31 g ai/ha, postemergence; for Plant response rating, Pigweed, Palmer: Postemergence, 125 g ai/ha, 10 days
Outline: as §1

[19] = tested on: ragweed (common ragweed, Ambrosia artemisiifolia); assay: Test A1 postemergence, ragweed; conditions: 0 to 100 scale (0 no effect, 100 complete control); for Ragweed plant response rating: 31 g ai/ha, postemergence; for Plant response rating, Ragweed: Postemergence, 125 g ai/ha, 10 days
Outline: as §1

[20] = tested on: Ryegrass, Italian (Italian ryegrass, Lolium multiflorum); assay: Test A1 postemergence, Ryegrass, Italian; conditions: 0 to 100 scale (0 no effect, 100 complete control); for Ryegrass, Italian plant response rating: 31 g ai/ha, postemergence; for Plant response rating, Ryegrass, Italian: Postemergence, 125 g ai/ha, 10 days
Outline: as §2

soybean (Glycine max) [21] = assay: Test A1 postemergence, soybean; conditions: 0 to 100 scale (0 no effect, 100 complete control); for Soybean plant response rating: 31 g ai/ha, postemergence; for Plant response rating, Soybean: Postemergence, 125 g ai/ha, 10 days
Outline: as §2

[22] = tested on: wheat (Triticum aestivum); assay: Test A1 postemergence, wheat; conditions: 0 to 100 scale (0 no effect, 100 complete control); for Wheat plant response rating: 31 g ai/ha, postemergence; for Plant response rating, Wheat: Postemergence, 125 g ai/ha, 10 days
Outline: as §2

[23] = tested on: galium (catchweed bedstraw, Galium aparine); assay: Test A1 postemergence, galium; conditions: 0 to 100 scale (0 no effect, 100 complete control); for Galium plant response rating: 31 g ai/ha, postemergence; for Plant response rating, Galium: Postemergence, 125 g ai/ha, 10 days
Outline: as §2

[24] = tested on: horseweed (Erigeron canadensis); assay: Test A1 postemergence, horseweed; conditions: 0 to 100 scale (0 no effect, 100 complete control); for Horseweed plant response rating: 31 g ai/ha, postemergence; for Plant response rating, Horseweed: Postemergence, 125 g ai/ha, 10 days
Outline: as §2

[25] = tested on: barnyardgrass (Echinochloa crus-galli); assay: Test B1 flooded paddy test, barnyardgrass; conditions: 250 g ai/ha, Flood, applied to paddy water, 2-leaf stage, visually evaluated after 10 to 14 days
Description: (§3) A dash (-) response means no test result.

[26] = tested on: ducksalad (Heteranthera limosa); assay: Test B1 flooded paddy test, ducksalad; conditions: 250 g ai/ha, Flood, applied to paddy water, 2-leaf stage, visually evaluated after 10 to 14 days
Description: as §3

rice (Oryza sativa) = assay: Test B1 flooded paddy test, rice; conditions: 250 g ai/ha, Flood, applied to paddy water, 2-leaf stage, visually evaluated after 10 to 14 days
Description: as §3

[27] = 31 g ai/ha, 0 to 100 scale (0 no effect, 100 complete control)
[28] = 125 g ai/ha, 0 to 100 scale, 0 no effect, 100 complete control

Cc1cc(C)c(N(S(=O)(=O)C(F)(F)F)S(=O)(=O)C(F)(F)F)cc1N1CCC2(CCC(C(F)(F)F)CC2)C1=O (stereo not drawn) [Compound 399]
Plant response rating, Blackgrass [1, 27]: 20
Plant response rating, Blackgrass [1, 28]: 60
Plant response rating, Corn (corn (Zea mays) [2]; [27]): 0
Plant response rating, Corn (corn (Zea mays) [2]; [28]): 0
Plant response rating, Foxtail, Giant [3, 27]: 10
Plant response rating, Foxtail, Giant [3, 28]: 90
Plant response rating, Goosegrass [4, 27]: 90
Plant response rating, Goosegrass [4, 28]: 90
Plant response rating, Kochia (kochia (Bassia scoparia) [5]; [27]): 0
Plant response rating, Kochia (kochia (Bassia scoparia) [5]; [28]): 50
Plant response rating, Oat, Wild [6, 27]: 20
Plant response rating, Oat, Wild [6, 28]: 40
Plant response rating, Pigweed, Palmer [7, 27]: 30
Plant response rating, Pigweed, Palmer [7, 28]: 60
Plant response rating, Ragweed [8, 27]: 0
Plant response rating, Ragweed [8, 28]: 60
Plant response rating, Ryegrass, Italian [9, 27]: 40
Plant response rating, Ryegrass, Italian [9, 28]: 90
Plant response rating, Soybean (soybean (Glycine max) [10]; [27]): 30
Plant response rating, Soybean (soybean (Glycine max) [10]; [28]): 40
Plant response rating, Wheat [11, 27]: 0
Plant response rating, Wheat [11, 28]: 20
Blackgrass plant response rating [12]: 40
Plant response rating, Blackgrass [12]: 90
Corn plant response rating (corn (Zea mays) [13]): 0
Plant response rating, Corn (corn (Zea mays) [13]): 10
Foxtail, Giant plant response rating [14]: 10
Plant response rating, Foxtail, Giant [14]: 60
Goosegrass plant response rating [15]: 40
Plant response rating, Goosegrass [15]: 90
Kochia plant response rating (kochia (Bassia scoparia) [16]): 30
Plant response rating, Kochia (kochia (Bassia scoparia) [16]): 70
Oat, Wild plant response rating [17]: 10
Plant response rating, Oat, Wild [17]: 40
Pigweed, Palmer plant response rating [18]: 30
Plant response rating, Pigweed, Palmer [18]: 70
Ragweed plant response rating [19]: 50
Plant response rating, Ragweed [19]: 90
Ryegrass, Italian plant response rating [20]: 0
Plant response rating, Ryegrass, Italian [20]: 70
Soybean plant response rating (soybean (Glycine max) [21]): 60
Plant response rating, Soybean (soybean (Glycine max) [21]): 100
Wheat plant response rating [22]: 60
Plant response rating, Wheat [22]: 60
Galium plant response rating [23]: 50
Plant response rating, Galium [23]: 90
Horseweed plant response rating [24]: 0
Plant response rating, Horseweed [24]: 50
Plant response rating, Barnyardgrass (0 to 100 scale, 0 is no effect, 100 is complete control) [25]: 0
Plant response rating, Ducksalad (0 to 100 scale, 0 is no effect, 100 is complete control) [26]: 75
Plant response rating, Rice (0 to 100 scale, 0 is no effect, 100 is complete control) (rice (Oryza sativa)): 0

Cc1cc(C)c(N(COC(=O)C(C)(C)C)S(=O)(=O)C(F)(F)F)cc1N1CCC2(CCC(C(F)(F)F)CC2)C1=O (stereo not drawn) [Compound 403]
Plant response rating, Blackgrass [1, 27]: 0
Plant response rating, Blackgrass [1, 28]: 0
Plant response rating, Corn (corn (Zea mays) [2]; [27]): 0
Plant response rating, Corn (corn (Zea mays) [2]; [28]): 10
Plant response rating, Foxtail, Giant [3, 27]: 0
Plant response rating, Foxtail, Giant [3, 28]: 10
Plant response rating, Goosegrass [4, 27]: 0
Plant response rating, Goosegrass [4, 28]: 0
Plant response rating, Kochia (kochia (Bassia scoparia) [5]; [27]): 0
Plant response rating, Kochia (kochia (Bassia scoparia) [5]; [28]): 0
Plant response rating, Oat, Wild [6, 27]: 0
Plant response rating, Oat, Wild [6, 28]: 10
Plant response rating, Pigweed, Palmer [7, 27]: 0
Plant response rating, Pigweed, Palmer [7, 28]: 0
Plant response rating, Ragweed [8, 27]: 0
Plant response rating, Ragweed [8, 28]: 20
Plant response rating, Ryegrass, Italian [9, 27]: 30
Plant response rating, Ryegrass, Italian [9, 28]: 30
Plant response rating, Soybean (soybean (Glycine max) [10]; [27]): 0
Plant response rating, Soybean (soybean (Glycine max) [10]; [28]): 0
Plant response rating, Wheat [11, 27]: 0
Plant response rating, Wheat [11, 28]: 0
Blackgrass plant response rating [12]: 0
Plant response rating, Blackgrass [12]: 0
Corn plant response rating (corn (Zea mays) [13]): 0
Plant response rating, Corn (corn (Zea mays) [13]): 0
Foxtail, Giant plant response rating [14]: 0
Plant response rating, Foxtail, Giant [14]: 0
Goosegrass plant response rating [15]: 0
Plant response rating, Goosegrass [15]: 50
Kochia plant response rating (kochia (Bassia scoparia) [16]): 10
Plant response rating, Kochia (kochia (Bassia scoparia) [16]): 40
Oat, Wild plant response rating [17]: 0
Plant response rating, Oat, Wild [17]: 30
Pigweed, Palmer plant response rating [18]: 0
Plant response rating, Pigweed, Palmer [18]: 30
Ragweed plant response rating [19]: 0
Plant response rating, Ragweed [19]: 50
Ryegrass, Italian plant response rating [20]: 0
Plant response rating, Ryegrass, Italian [20]: 0
Soybean plant response rating (soybean (Glycine max) [21]): 50
Plant response rating, Soybean (soybean (Glycine max) [21]): 60
Wheat plant response rating [22]: 0
Plant response rating, Wheat [22]: 0
Galium plant response rating [23]: 70
Plant response rating, Galium [23]: 100
Horseweed plant response rating [24]: 0
Plant response rating, Horseweed [24]: 30
Plant response rating, Barnyardgrass (0 to 100 scale, 0 is no effect, 100 is complete control) [25]: 0
Plant response rating, Ducksalad (0 to 100 scale, 0 is no effect, 100 is complete control) [26]: 15
Plant response rating, Rice (0 to 100 scale, 0 is no effect, 100 is complete control) (rice (Oryza sativa)): 0
